{"source": "paper PMC7246325", "about": "(Drug Design, Development and Therapy, 2020)", "key": {"CYP2C9 [1]": {"molecular_target": "CYP2C9 (Homo sapiens, UniProt P11712)", "sequence (P11712 whole entry)": "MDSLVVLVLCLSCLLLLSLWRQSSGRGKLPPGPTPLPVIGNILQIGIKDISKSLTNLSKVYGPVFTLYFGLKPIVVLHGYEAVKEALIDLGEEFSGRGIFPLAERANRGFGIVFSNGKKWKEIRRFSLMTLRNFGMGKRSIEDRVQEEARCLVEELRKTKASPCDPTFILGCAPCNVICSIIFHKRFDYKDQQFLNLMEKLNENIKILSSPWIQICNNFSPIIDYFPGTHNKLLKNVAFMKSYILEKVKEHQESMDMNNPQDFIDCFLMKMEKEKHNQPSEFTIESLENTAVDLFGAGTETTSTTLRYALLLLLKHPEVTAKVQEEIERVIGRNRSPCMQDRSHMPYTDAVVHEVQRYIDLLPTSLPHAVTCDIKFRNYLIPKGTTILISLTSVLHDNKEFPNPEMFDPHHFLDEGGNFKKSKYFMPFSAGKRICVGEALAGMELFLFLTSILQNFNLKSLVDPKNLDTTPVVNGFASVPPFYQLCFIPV", "experiment": "In vitro CYP2C9 inhibition", "assay_type": "biochemical"}, "CYP2C9 [2]": {"tested_on": "CYP2C9", "settings": "among human CYP450 isoenzymes; cited from earlier work"}, "CYP3A4 [3]": {"molecular_target": "T1, CYP3A4 (Homo sapiens, UniProt P08684)", "T1 sequence (P08684 whole entry)": "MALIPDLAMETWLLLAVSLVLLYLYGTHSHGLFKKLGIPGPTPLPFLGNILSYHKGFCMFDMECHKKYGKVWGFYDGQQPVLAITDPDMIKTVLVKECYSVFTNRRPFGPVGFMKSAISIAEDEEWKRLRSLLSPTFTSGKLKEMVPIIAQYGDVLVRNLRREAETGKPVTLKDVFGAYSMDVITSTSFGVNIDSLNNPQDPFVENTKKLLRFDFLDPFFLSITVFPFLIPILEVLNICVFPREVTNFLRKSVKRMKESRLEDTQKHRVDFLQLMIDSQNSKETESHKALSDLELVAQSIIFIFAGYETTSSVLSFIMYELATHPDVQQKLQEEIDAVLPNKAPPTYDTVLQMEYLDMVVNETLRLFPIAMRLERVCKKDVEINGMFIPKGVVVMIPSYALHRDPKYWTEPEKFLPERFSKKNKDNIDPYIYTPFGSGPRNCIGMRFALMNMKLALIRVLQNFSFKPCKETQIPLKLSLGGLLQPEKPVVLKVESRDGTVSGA", "experiment": "Predicted AUC ratios for CYP3A4 substrates", "settings": "dose (750 mg)/250 mL"}, "CYP3A4 [4]": {"molecular_target": "T1, CYP3A4", "experiment": "In vitro CYP3A4 inhibition", "assay_type": "biochemical"}, "[5]": {"settings": "cancer patients; cited from earlier work"}, "CYP3A4 [6]": {"molecular_target": "T1, CYP3A4", "experiment": "In vitro CYP3A4 inhibition", "assay_type": "biochemical", "remark": "listed apart in the source"}, "CYP3A4 [7]": {"tested_on": "CYP3A4", "settings": "among human CYP450 isoenzymes; cited from earlier work"}, "Safety assessment": {"experiment": "Safety assessment", "assay_type": "in vivo, patients with advanced solid tumors", "settings": "23 patients"}, "[8]": {"settings": "any grade, 750 mg apatinib daily"}, "[9]": {"settings": "warfarin 3 mg, apatinib 750 mg daily, vs single administration"}}, "note": "Like-named read-outs stand apart in the source and are kept apart here."}
{"smiles": "N#CC1(c2ccc(NC(=O)c3cccnc3NCc3ccncc3)cc2)CCCC1", "note": "[apatinib]", "values": [{"measurement": "IC50", "setting": "CYP2C9 [1]", "result": 440, "unit": "nM"}, {"measurement": "Ki", "setting": "CYP2C9 [1]", "result": 310, "unit": "nM"}, {"measurement": "Contribution of CYP2C9 to the oxidative metabolism", "setting": "CYP2C9 [2]", "result": 13.1, "unit": "%"}, {"measurement": "Igut", "setting": "CYP3A4 [3]", "result": 6078, "unit": "µM"}, {"measurement": "IC50", "setting": "CYP3A4 [4]", "result": 1800, "unit": "nM"}, {"measurement": "Ki", "setting": "CYP3A4 [4]", "result": 710, "unit": "nM"}, {"measurement": "t1/2", "setting": "[5]", "result": "8.01 to 10.2", "unit": "h"}, {"measurement": "IC50", "setting": "CYP3A4 [6]", "result": 830, "unit": "nM"}, {"measurement": "Ki", "setting": "CYP3A4 [6]", "result": 270, "unit": "nM"}, {"measurement": "Contribution of CYP3A4 to the in vitro (oxidative) metabolism", "setting": "CYP3A4 [7]", "result": 62.6, "unit": "%"}, {"measurement": "Incidence of bilirubin increased (adverse event related to apatinib)", "setting": "Safety assessment; [8]", "result": 21.7, "unit": "%"}, {"measurement": "Incidence of fatigue (adverse event related to apatinib)", "setting": "Safety assessment; [8]", "result": 21.7, "unit": "%"}, {"measurement": "Incidence of hand-foot syndrome (adverse event related to apatinib)", "setting": "Safety assessment; [8]", "result": 17.4, "unit": "%"}, {"measurement": "Incidence of headache (adverse event related to apatinib)", "setting": "Safety assessment; [8]", "result": 47.8, "unit": "%"}, {"measurement": "Incidence of hypertension (adverse event related to apatinib)", "setting": "Safety assessment; [8]", "result": 73.9, "unit": "%"}, {"measurement": "Incidence of leukopenia (adverse event related to apatinib)", "setting": "Safety assessment; [8]", "result": 21.7, "unit": "%"}, {"measurement": "Incidence of proteinuria (adverse event related to apatinib)", "setting": "Safety assessment; [8]", "result": 26.1, "unit": "%"}, {"measurement": "Incidence of thrombocytopenia (adverse event related to apatinib)", "setting": "Safety assessment; [8]", "result": 30.4, "unit": "%"}, {"measurement": "Incidence of grade 3/4 drug-related hypertension", "setting": "Safety assessment; grade 3/4, 750 mg apatinib daily", "result": 17.4, "unit": "%"}]}
{"smiles": "CC(=O)C[C@@H](c1ccccc1)c1c(O)c2ccccc2oc1=O", "note": "[S-Warfarin, S-warfarin]", "values": [{"measurement": "AUC0-∞", "setting": "3 mg warfarin oral + 750 mg apatinib daily, N=20, GMean (CV%)", "result": "12600 (35.0) h×ng/mL"}, {"measurement": "Tmax", "setting": "3 mg warfarin oral + 750 mg apatinib daily, N=20, median (range)", "result": "1.00 (0.500–3.00) h"}, {"measurement": "AUC0-∞", "setting": "3 mg warfarin oral, alone, N=23, GMean (CV%)", "result": "5190 (26.8) h×ng/mL"}, {"measurement": "Tmax", "setting": "3 mg warfarin oral, alone, N=23, median (range)", "result": "0.500 (0.500–3.00) h"}, {"measurement": "Difference of Tmax before and after coadministration of apatinib", "setting": "S-warfarin, Wilcoxon signed-rank test", "result": "no significant difference"}, {"measurement": "Increase of AUC0–t (exposure) on coadministration with apatinib", "setting": "[9]", "result": 92, "unit": "%"}, {"measurement": "Increase of Cmax on coadministration with apatinib", "setting": "[9]", "result": 24, "unit": "%"}]}
